Data as given in BindingDB's records for doi:10.1021/acs.jmedchem.0c01312 (Jinan University, 2020).

Experiment: Inhibition of KRas G12C mutant in human NCI-H1792 cells assessed as antiproliferative activity incubated for 3 days by CellTiter-Glo assay

`C=CC(=O)N1CCN(C(=O)CNc2cc(I)c(Cl)cc2O)CC1` gave an EC50 of 320 nM.
